Measured values as given in patent US6911474B2, “Methods, compounds, and compositions for reducing body fat and modulating fatty acid metabolism” (The Regents of the University of California, priority 2001, dated 2005).
Values joined by “and” are separate entries in the source; they are usually repeats but may differ in a detail not shown here. Equal entries are not always repeated.

How the values were obtained:
[1] = Food intake in capsaicin-treated rats (sensory fibers destroyed); format: in vivo, rat; details: OEA 10 mg per kg, i.p., FIG. 6a,c
Description: Chemicals. FAEs and [^2H4] FAEs were synthesized in the laboratory (Giuffrida et al., “Lipid Second Messengers” (ed. Laychock, S. G. & Rubin, R. P.) 113-133 (CRC Press LLC, Boca Raton, Fla., 1998)); 1,2-dioleyl-sn-glycero-phosphoethanolamine-N-oleyl was purchased from Avanti Polar Lipids (Alabaster, Ala.); SR141716A was provided by RBI (Natick, Mass.) as part of the Chemical Synthesis Program of the NIMH (N01MH30003); SR144528 was a generous gift of Sanofi Recherche; all other drugs were from Tocris (Ballwin, Mo.) or Sigma (Saint Louis, Mo.). FAE were dissolved in dimethylsulphoxide (DMSO) and administered in 70% DMSO in sterile saline (acute treatments) or 5% Tween 80/5% propylenglycol in sterile saline (subchronic treatments) (1 ml per kg, i.p.). Capsaicin was administered in 10% Tween 80/10% ethanol/80% saline; SR141716A, SR144528, CCK-8 and CP-93129 in 5% Tween 80/5% propylenglycol/90% saline (1 ml per kg, i.p.).
These findings support the hypothesis that OEA causes hypophagia by acting at a peripheral site, and that sensory fibers are required for this effect.

[2] = Food intake after intracerebroventricular administration to 24 h food-deprived rats; format: in vivo, rat
Method: Feeding experiments. Acute experiments. Food intake was measured in 24-h food-deprived rats (Navarro et al., J. Neurochem., 67:1982-1991 (1996)), administering drugs 15 min before food presentation. Subchronic experiments. Ad libitum fed rats received vehicle injections for three days. On day four, the animals were divided in two equal groups and gave them daily injections of vehicle or OEA (5 mg per kg at 1900 h) for 7 consecutive days, while measuring body weight, food intake and water intake.

[3] = Acute water intake; format: in vivo, rat; details: 5 or 20 mg per kg; FIG. 4d
Method: FIG. 4. Oleoylethanolamide/[…] selectively suppresses food intake: […] Vehicle alone (70% DMSO in saline, 1 ml per kg, i.p.) had no significant effect on acute food intake; (b) time course of the hypophagic effects of oleoylethanolamide (20 mg per kg, i.p.) (squares) or vehicle (lozenges) on food intake. […] Empty bars, water intake; filled bars, saccharin intake. Effects of vehicle (V) or oleoylethanolamide (5 or 20 mg per kg) on: (d) water intake (expressed in ml per 4 h); (e) body temperature; (f) latency to jump in the hot plate analgesia test; (g) percent time spent in open arms in the elevated plus maze anxiety test; (h) number of crossings in the open field activity test; (i) number of operant responses for food. Asterisk, P<0.05, n=8-12 per group.

[4] = system: Hepatocyte; assay: [14C]oleate oxidation to ketone bodies in hepatocytes; format: cell-based, rat
Method: Compounds can also be assayed for their effect on fatty acid metabolism. The effect of the candidate compound on fatty acid metabolism can be measured by measurements of fatty acid oxidation in primary cultures of liver cells. Hepatocytes may be used to determine the rate of oleate oxidation to ketone bodies and carbon dioxide. Such cells can be isolated from adult rat liver by enzymatic digestion as described by Beynen et al. in Diabetes 28:828 (1979). Cells typically are cultured in suspension and incubated in Krebs-Henseleit's bicarbonate medium supplemented with bovine serum albumin and glucose as described by Guzmán & Geelen, Biochem. J. 287:487(1992). The protein concentration of the cultured cells can be determined and cells seeded in 2 ml media so that 4-6 mg protein per ml is present in the reaction mixture. Cells can be incubated for 10 minutes at 37° C. with [^14C]-oleic acid (Arnersham), in the presence or absence of 10 μM OEA, reactions may be stopped with 200 μl 2M perchloric acid and acid-soluble products extracted with chloroform/methanol/water (5:1:1, vol:vol:vol). The aqueous phase can be removed and washed twice more. Protein concentration can be determined using a Lowry assay. The rate of oleate conversion into ketone bodies may be expressed as rnmol of oleate oxidized per hour per mg protein and may be determined using liquid scintillation counting. […]

water intake [3]: did not alter
SMILES: CCCCCCCC/C=C\CCCCCCCC(=O)NCCO [OEA, Oleoylethanolamide]
food intake response of capsaicin-treated rats [1]: failed to respond | effect on food intake after direct injection into the brain ventricles [2]: ineffective | food intake, 60 min ([2]; 0.4 μg per animal): 4.8 ± 0.4 | food intake, 120 min ([2]; 0.4 μg per animal): 6.6 ± 0.4 | food intake, 240 min ([2]; 0.4 μg per animal): 8.4 ± 0.4 | food intake, 60 min ([2]; 2 μg per animal): 4.9 ± 0.4 | food intake, 120 min ([2]; 2 μg per animal): 6.6 ± 0.6 | food intake, 240 min ([2]; 2 μg per animal): 8.7 ± 0.5 | food intake, 60 min ([2]; 10 μg per animal): 5.9 ± 0.2 | food intake, 120 min ([2]; 10 μg per animal): 8.1 ± 0.4 | food intake, 240 min ([2]; 10 μg per animal): 9.6 ± 0.7 | Stimulatory effect of 10 μM OEA (%) on [14C]oleate oxidation to ketone bodies ([4]; Hepatocyte, 10 μM, 10 min incubation): 21+−6% and 21 ± 6% | fatty acid oxidation in words ([4]; primary cultures of liver cells): significantly stimulates
